Source: patent US20120252741A1, “NOVEL SEMI-SYNTHETIC GLYCOPEPTIDES AS ANTIBACTERIAL AGENTS” (priority 2008, published 2012)
≈ marks a conversion by molar mass, not a printed value. Read-outs that look alike come from different tables or passages of the source.

Tests used:
Format in all cases: cell-based
[1] = system: Streptococcus pyogenes 712; experiment: MIC, broth microdilution, SPY 712; conditions: Streptococcus pyogenes, 712, class symbols, read-out: MIC S PYO 712
How it was run: (§1)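 Compounds were serially diluted by liquid handler into Mueller-Hinton broth, inoculated with clinical isolates, and MICs determined by the CLSI broth microdilution procedure.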

[2] = system: Enterococcus faecalis 101 (ATCC 29212); experiment: MIC, broth microdilution, EFc 101; conditions: Enterococcus faecalis, ATCC29212, class symbols, read-out: MIC E FC 101
How it was run: as §1

[3] = system: Staphylococcus epidermidis 831 (MRSE); experiment: MIC, broth microdilution, SE 831; conditions: Staphylococcus epidermidis, read-out: MIC SE 831
How it was run: as §1

[4] = system: Staphylococcus epidermidis 835; experiment: MIC, broth microdilution, SE 835; conditions: Staphylococcus epidermidis, 835, class symbols, read-out: MIC SE 835
How it was run: as §1

[5] = system: Enterococcus faecalis 848 (VRE, Van A); experiment: MIC, broth microdilution, EFc 848; conditions: VRE, Van A, class symbols, read-out: MIC E FC 848
How it was run: as §1

[6] = system: Enterococcus faecium 752 (VRE, Van A); experiment: MIC, broth microdilution, EFcm 752; conditions: VRE, Van A, class symbols, read-out: MIC E FCM 752
How it was run: as §1

Enterococcus faecium 800 = experiment: MIC, broth microdilution, EFcm 800; conditions: Enterococcus faecium, 800, class symbols, read-out: MIC E FCM 800
How it was run: as §1

[7] = system: Streptococcus pneumoniae 1195 (ATCC 49619); experiment: MIC, broth microdilution, SPNE 1195; conditions: Streptococcus pneumoniae, ATCC49619, class symbols, read-out: MIC S PNE 1195
How it was run: as §1

[8] = system: Staphylococcus aureus 757 (MRSA); experiment: MIC, broth microdilution, SA 757; conditions: read-out: MIC SA 757
How it was run: as §1

[9] = system: Staphylococcus aureus 2012 (VISA); experiment: MIC, broth microdilution, SA 2012; conditions: read-out: MIC SA 2012
How it was run: as §1

[10] = system: Staphylococcus aureus 100 (ATCC 29213); experiment: MIC, broth microdilution, SA 100; conditions: Staphylococcus aureus, ATCC29213, class symbols, read-out: MIC SA 100
How it was run: as §1

[11] = Table 2, in the presence of 0.002% Polysorbate 80
[12] = Table 2, in the presence of 0.002% Polysorbate 80, class symbols

MIC [1, 11]	MIC [2, 11]	MIC [3, 12]	MIC [4, 11]	MIC [5, 11]	MIC [6, 11]	MIC (Enterococcus faecium 800; [11])	MIC [7, 11]	MIC [8, 12]	MIC [9, 12]	MIC [10, 11]	SMILES	also measured
0.01 to 0.5 µg/mL	0.01 to 0.5 µg/mL	0.01 to 0.5 µg/mL	0.5 to 1 µg/mL	4 to 8 µg/mL	1 to 2 µg/mL	0.01 to 0.5 µg/mL	0.01 to 0.5 µg/mL	0.01 to 0.5 µg/mL	2 to 4 µg/mL	0.5 to 1 µg/mL	CN[C@H](CC(C)C)C(=O)N[C@H]1C(=O)N[C@@H](CC(=O)NC(=O)c2ccc(OCCOC)cc2)C(=O)N[C@H]2C(=O)N[C@H]3C(=O)N[C@H](C(=O)N[C@H](C(=O)NC4C5CC6CC(C5)CC4C6)c4cc(O)cc(O)c4-c4cc3ccc4O)[C@H](O)c3ccc(c(Cl)c3)Oc3cc2cc(c3O[C@@H]2O[C@H](CO)[C@@H](O)[C@H](O)[C@H]2O[C@H]2C[C@](C)(N)[C@H](O)[C@H](C)O2)Oc2ccc(cc2Cl)[C@H]1O (stereo partly drawn) [Compound 65]	–
0.01 to 0.5 µg/mL	0.01 to 0.5 µg/mL	0.01 to 0.5 µg/mL	0.01 to 0.5 µg/mL	2 to 4 µg/mL	0.01 to 0.5 µg/mL	0.01 to 0.5 µg/mL	0.01 to 0.5 µg/mL	0.01 to 0.5 µg/mL	2 to 4 µg/mL	0.01 to 0.5 µg/mL	CCCCCCC(C)C(=O)NC(=O)C[C@@H]1NC(=O)[C@H](NC(=O)[C@@H](CC(C)C)NC)[C@H](O)c2ccc(c(Cl)c2)Oc2cc3cc(c2O[C@@H]2O[C@H](CO)[C@@H](O)[C@H](O)[C@H]2O[C@H]2C[C@](C)(N)[C@H](O)[C@H](C)O2)Oc2ccc(cc2Cl)[C@@H](O)[C@@H]2NC(=O)[C@H](NC(=O)[C@@H]3NC1=O)c1ccc(O)c(c1)-c1c(O)cc(O)cc1[C@@H](C(=O)NC1C3CC4CC(C3)CC1C4)NC2=O (stereo partly drawn) [Compound 46]	–
–	–	–	–	–	–	–	–	–	–	–	CN[C@H](CC(C)C)C(=O)N[C@H]1C(=O)N[C@@H](CC(=O)NS(=O)(=O)c2ccc(OCCOCCOC)cc2)C(=O)N[C@H]2C(=O)N[C@H]3C(=O)N[C@H](C(=O)N[C@H](C(=O)NC4C5CC6CC(C5)CC4C6)c4cc(O)cc(O)c4-c4cc3ccc4O)[C@H](O)c3ccc(c(Cl)c3)Oc3cc2cc(c3O[C@@H]2O[C@H](CN)[C@@H](O)[C@H](O)[C@H]2O)Oc2ccc(cc2Cl)[C@H]1O (stereo partly drawn) [Compound 102]	MIC ([1]; Table 1): 0.01 to 0.5 µg/mL (≈ 0.00589 to 0.295 µM); MIC ([2]; Table 1): 0.01 to 0.5 µg/mL (≈ 0.00589 to 0.295 µM); MIC ([3]; Table 1, class symbols): 0.01 to 0.5 µg/mL (≈ 0.00589 to 0.295 µM); MIC ([4]; Table 1): 0.01 to 0.5 µg/mL (≈ 0.00589 to 0.295 µM); MIC ([5]; Table 1): 2 to 4 µg/mL (≈ 1.18 to 2.36 µM); MIC ([6]; Table 1): 0.5 to 1 µg/mL (≈ 0.295 to 0.589 µM); MIC (Enterococcus faecium 800; Table 1): 0.01 to 0.5 µg/mL (≈ 0.00589 to 0.295 µM); MIC ([7]; Table 1): 0.01 to 0.5 µg/mL (≈ 0.00589 to 0.295 µM); MIC ([8]; Table 1, class symbols): 0.01 to 0.5 µg/mL (≈ 0.00589 to 0.295 µM); MIC ([9]; Table 1, class symbols): 0.5 to 1 µg/mL (≈ 0.295 to 0.589 µM); MIC ([10]; Table 1): 0.01 to 0.5 µg/mL (≈ 0.00589 to 0.295 µM)
